Where “and” joins values, the source holds several entries; their conditions need not be identical. Equal values may be shown once. Inconclusive results and toxic doses are left out.

The assay deals with P388 leukemia ip, CD2F1 mice, survival T/C. Briefly: NCI In Vivo Anticancer Drug Screen. Data for tumor model P388 Leukemia (intraperitoneal) in CD2F1 (CDF1) mice. The following applies: endpoint: median survival time, higher = longer survival. The procedure:
The antitumor activity of compounds was measured in mice bearing transplantable tumors. Survival or tumor size were measured and the results are expressed as the measurement made in the treated group (T) divided by the measurement made in the vehicle treated control group (C). The tumor model used in this assay is P388 Leukemia (intraperitoneal) in CD2F1 (CDF1) mice

Where [1] appears, read: dose: 100.0 mg/kg/injection, schedule: Q01DX009 (ip), vehicle: Klucel (hydroxypropylcellulose) (HPC).
[2] abbreviates: dose: 60.0 mg/kg/injection, schedule: Q01DX005 (ip), vehicle: Klucel (hydroxypropylcellulose) (HPC).
Where [3] appears, read: dose: 50.0 mg/kg/injection, schedule: Q01DX009 (ip), vehicle: saline with Tween-80.
Setting [4] is: dose: 100.0 mg/kg/injection, schedule: Q01DX009 (ip), vehicle: saline with Tween-80.
The mark [5] stands for this setting: dose: 200.0 mg/kg/injection, schedule: Q01DX009 (ip), vehicle: saline with Tween-80.
The mark [6] stands for this setting: dose: 50.0 mg/kg/injection, schedule: Q01DX005 (ip), vehicle: saline with Tween-80.
[7] abbreviates: dose: 100.0 mg/kg/injection, schedule: Q01DX005 (ip), vehicle: saline with Tween-80.
[8] abbreviates: dose: 200.0 mg/kg/injection, schedule: Q01DX005 (ip), vehicle: saline with Tween-80.
[9] abbreviates: dose: 50.0 mg/kg/injection, schedule: Q01DX005 (ip), vehicle: saline.
Where [10] appears, read: dose: 50.0 mg/kg/injection, schedule: Q01DX005 (ip), vehicle: Klucel (hydroxypropylcellulose) (HPC).
Setting [11] is: dose: 100.0 mg/kg/injection, schedule: Q01DX005 (ip), vehicle: Klucel (hydroxypropylcellulose) (HPC).
[12] abbreviates: dose: 200.0 mg/kg/injection, schedule: Q01DX005 (ip), vehicle: Klucel (hydroxypropylcellulose) (HPC).
[13] abbreviates: dose: 60.0 mg/kg/injection, schedule: Q01DX005 (ip), vehicle: saline with Tween-80.
Where [14] appears, read: dose: 120.0 mg/kg/injection, schedule: Q01DX005 (ip), vehicle: saline with Tween-80.
[15] abbreviates: dose: 240.0 mg/kg/injection, schedule: Q01DX005 (ip), vehicle: saline with Tween-80.
The mark [16] stands for this setting: dose: 50.0 mg/kg/injection, schedule: Q01DX009 (ip), vehicle: Klucel (hydroxypropylcellulose) (HPC).
Where [17] appears, read: dose: 200.0 mg/kg/injection, schedule: Q01DX009 (ip), vehicle: Klucel (hydroxypropylcellulose) (HPC).

For the compound `Cc1ccc2nc(NC(=S)S)sc2c1`, the T/C is, setting by setting: (dose: 6.25 mg/kg/injection, schedule: Q01DX009 (ip), vehicle: Klucel (hydroxypropylcellulose) (HPC)) 100 % of control; (dose: 12.5 mg/kg/injection, schedule: Q01DX009 (ip), vehicle: Klucel (hydroxypropylcellulose) (HPC)) 107 % of control; (dose: 25.0 mg/kg/injection, schedule: Q01DX009 (ip), vehicle: Klucel (hydroxypropylcellulose) (HPC)) 113 % of control; under setting [1], 87 % of control.

Consider `Brc1ccc2c(ccc3nc4nnnn4nc32)c1`, for which the T/C is, setting by setting: under setting [2], 94 % of control; (dose: 120.0 mg/kg/injection, schedule: Q01DX005 (ip), vehicle: Klucel (hydroxypropylcellulose) (HPC)) 90 % of control; (dose: 240.0 mg/kg/injection, schedule: Q01DX005 (ip), vehicle: Klucel (hydroxypropylcellulose) (HPC)) 86 % of control.

Regarding `Cc1oc(-c2ccc(F)cc2)nc1C(N)=O`, the T/C (dose: 100.0 mg/kg/injection, schedule: Q01DX001 (ip), vehicle: Klucel (hydroxypropylcellulose) (HPC)) is 97 % of control; the T/C (dose: 200.0 mg/kg/injection, schedule: Q01DX001 (ip), vehicle: Klucel (hydroxypropylcellulose) (HPC)) is 94 % of control; the T/C (dose: 400.0 mg/kg/injection, schedule: Q01DX001 (ip), vehicle: Klucel (hydroxypropylcellulose) (HPC)) is 101 % of control.

Turning to `CCCCCC(C[N+]1(C)CCOCC1)C(=O)/C=C/c1ccccc1` (centres undefined), the T/C by setting is: (dose: 12.5 mg/kg/injection, schedule: Q01DX009 (ip), vehicle: saline with Tween-80) 96 % of control; (dose: 12.5 mg/kg/injection, schedule: Q01DX009 (ip), vehicle: saline) 108 % of control; (dose: 25.0 mg/kg/injection, schedule: Q01DX009 (ip), vehicle: saline with Tween-80) 108 % of control; (dose: 25.0 mg/kg/injection, schedule: Q01DX009 (ip), vehicle: saline) 108 % of control.

In the case of `CC(=O)OC1C(=O)C2(C)C(O)CC3OCC3(OC(C)=O)C2C(OC(=O)c2ccccc2)C2(O)CC(OC(=O)C(O)C(NC(=O)c3ccccc3)c3ccccc3)C(C)=C1C2(C)C` (centres undefined), the T/C reads like this: (dose: 2.5 mg/kg/injection, schedule: Q01DX005 (ip), vehicle: DMSO) 106 % of control; (dose: 5.0 mg/kg/injection, schedule: Q01DX005 (ip), vehicle: DMSO) 121 % of control; (dose: 20.0 mg/kg/injection, schedule: Q01DX005 (ip), vehicle: DMSO) 167 % of control.

Turning to `CCOC(=O)C(C(=O)c1ccccc1)C(=O)C(C)(C)C` (centres undefined), the T/C reads like this: under setting [3], 100 % of control; under setting [4], 91 % of control; under setting [5], 95 % of control.

For the compound `COc1ccc(CCNC(=O)C2CCCOC2C(Cl)Cl)cc1OC` (centres undefined), the T/C under setting [6] was 97 % of control, the T/C under setting [7] was 101 % of control and the T/C under setting [8] is 93 % of control.

Turning to `NCC(c1ccccc1)C1CCCCC1` (centres undefined), the T/C is 103 % of control (dose: 12.5 mg/kg/injection, schedule: Q01DX005 (ip), vehicle: saline); 94 % of control (dose: 25.0 mg/kg/injection, schedule: Q01DX005 (ip), vehicle: saline); 100 % of control and 95 % of control under setting [9].

Turning to `Cc1cc(N/N=C/c2ccc(N(CCCl)CCCl)cc2)c2cc3c(cc2n1)OCO3`, the T/C (dose: 25.0 mg/kg/injection, schedule: Q04DX003 (ip), vehicle: saline with Tween-80) is 111 % of control.

As to `C/C(=C1\N=C(c2ccccc2)OC1=O)c1ccccc1`, the T/C is, setting by setting: under setting [6], 96 % of control; under setting [7], 92 % of control; under setting [8], 95 % of control.

For `CCCN1C(C)=C(C#N)C2(C(=O)Nc3ccccc32)C(C#N)=C1C`, the T/C is, setting by setting: under setting [10], 99 % of control; under setting [11], 102 % of control; under setting [12], 102 % of control.

Consider `O=C1OCC/C1=C/OC(=O)c1ccccc1`, for which the T/C reads like this: under setting [13], 93 % of control; under setting [14], 99 % of control; under setting [15], 106 % of control.

Regarding `COc1c(O)c(OC)c2oc3ccccc3c(=O)c2c1OC`, the T/C is, setting by setting: (dose: 2.5 mg/kg/injection, schedule: Q01DX009 (ip), vehicle: saline + alcohol) 100 % of control; (dose: 5.0 mg/kg/injection, schedule: Q01DX009 (ip), vehicle: saline + alcohol) 101 % of control; (dose: 10.0 mg/kg/injection, schedule: Q01DX009 (ip), vehicle: saline + alcohol) 100 % of control.

With `C=CS(=O)(=O)c1cccc(N2C(=O)c3cc(S(=O)(=O)O)cc4c(N)c(S(=O)(=O)O)cc(c34)C2=O)c1`, the T/C reads like this: under setting [9], 107 % of control; (dose: 100.0 mg/kg/injection, schedule: Q01DX005 (ip), vehicle: saline) 107 % of control; (dose: 200.0 mg/kg/injection, schedule: Q01DX005 (ip), vehicle: saline) 100 % of control.

As for `O=C(O)CNC(=S)C(=S)NCC(=O)O`, the T/C under setting [10] was 101 % of control, the T/C under setting [11] is 97 % of control and the T/C under setting [12] was 90 % of control.

For `C=C1C(=O)OC(C)(C)C1c1ccc(Cl)c(Cl)c1` (centres undefined), the T/C reads like this: under setting [16], 93 % of control; under setting [1], 92 % of control; under setting [17], 97 % of control.

Take `COc1cccc(C2CC(C)(O)Oc3cc4c(cc32)OCO4)c1` (centres undefined): the T/C under setting [2] is 93 % of control.

`O=C1c2ccccc2C(=O)N1/N=C/c1cccc(Cl)c1`: the T/C by setting is: (dose: 100.0 mg/kg/injection, schedule: Q04DX002 (ip), vehicle: saline with Tween-80) 100 % of control; (dose: 200.0 mg/kg/injection, schedule: Q04DX002 (ip), vehicle: saline with Tween-80) 93 % of control; (dose: 400.0 mg/kg/injection, schedule: Q04DX002 (ip), vehicle: saline with Tween-80) 89 % of control.

Turning to `COCCCOC(=O)Oc1ccc(CC(N)C(=O)O)cc1` (centres undefined), the T/C is, setting by setting: under setting [10], 99 % of control; under setting [11], 99 % of control; under setting [12], 96 % of control.

With `CCCCCCCCCc1ccc(OC(C)OCCOCCOCC)cc1` (centres undefined), the T/C under setting [13] was 98 % of control, the T/C under setting [14] was 98 % of control and the T/C under setting [15] was 98 % of control.

As to `CC1CCC(C(C)C)C(OC(=O)c2cc[n+](C)cc2)C1` (centres undefined), the T/C runs as follows: under setting [10], 107 % of control; under setting [11], 98 % of control.

With `Cc1cc2c(cc1C)[n+](=O)c1c(n2[O-])CCC1`, the T/C reads like this: under setting [13], 100 % of control; under setting [14], 95 % of control.

For the compound `COc1cccc(CSC(C(=O)O)c2ccccc2)c1` (centres undefined), the T/C under setting [3] is 107 % of control, the T/C under setting [4] was 101 % of control and the T/C under setting [5] was 117 % of control.

Consider `CC[n+]1cccc(O)c1`, for which the T/C by setting is: (dose: 50.0 mg/kg/injection, schedule: Q01DX009 (ip), vehicle: saline) 105 % of control and 94 % of control; (dose: 100.0 mg/kg/injection, schedule: Q01DX009 (ip), vehicle: saline) 95 % of control and 96 % of control; (dose: 200.0 mg/kg/injection, schedule: Q01DX009 (ip), vehicle: saline) 107 % of control and 95 % of control; (dose: 400.0 mg/kg/injection, schedule: Q01DX009 (ip), vehicle: saline) 100 % of control and 105 % of control.

Take `O=C1c2ccccc2C(=O)c2c(Nc3cc4c5c(ccc6c7ccc8c9c(cc(Nc%10cccc%11c%10C(=O)c%10ccccc%10C%11=O)c(c3c56)c97)-c3ccccc3C8=O)C(=O)c3ccccc3-4)cccc21`: the T/C (dose: 12.5 mg/kg/injection, schedule: Q01DX005 (ip), vehicle: Klucel (hydroxypropylcellulose) (HPC)) is 106 % of control; the T/C (dose: 25.0 mg/kg/injection, schedule: Q01DX005 (ip), vehicle: Klucel (hydroxypropylcellulose) (HPC)) is 101 % of control; the T/C under setting [10] was 98 % of control and 101 % of control; the T/C under setting [11] is 96 % of control.

For `COc1ccc(/C=N/NC(N)=O)c(OC)c1OC`, the T/C is 100 % of control under setting [16], 103 % of control under setting [1] and 98 % of control under setting [17].

Turning to `S=[As]1(c2cccc3ccccc23)c2ccccc2-c2ccccc21`, the T/C runs as follows: (dose: 30.0 mg/kg/injection, schedule: Q01DX009 (ip), vehicle: saline with Tween-80) 106 % of control; (dose: 60.0 mg/kg/injection, schedule: Q01DX009 (ip), vehicle: saline with Tween-80) 100 % of control; (dose: 120.0 mg/kg/injection, schedule: Q01DX009 (ip), vehicle: saline with Tween-80) 110 % of control.

Values taken from PubChem BioAssay AID330 (DTP/NCI, 2004).
